Eleven compounds from patent US20110230481A2, “DERIVATIVES OF TETRABROMOBENZIMIDAZOLE, A PROCESS FOR THE PREPARATION THEREOF, A PHARMACEUTICAL COMPOSITION COMPRISING THE SAME, A METHOD OF USING THE SAME, A METHOD FOR MODULATING OR REGULATING SERINE/THREONINE KINASES, AND SERINE/THREONINE KINASES MODULATING AGENT” (SELVITA S.A., priority 2009, published 2011) can be followed below.

Where two headings read alike, the source gives them in different places.

The test system of assay [1] is human prostate adenocarcinoma PC3 cells. Nature of the assay: Growth inhibition test (MTS). In kind it is cell-based. The settings on record: PC-3; 72 hours. How it is done:
(§1) Two thousand cells of human prostate adenocarcinoma PC3 were inoculated into each well of a 96-well microplate (manufactured by Corning Corp.), and using F12K (Ham's F12:RPMI 8226 1:1) medium (culture medium) containing 10% fetal calf serum (FCS). The same day, a dimethyl sulfoxide (DMSO) solution of each test compound prepared in a concentration of 10 mmol/L was further diluted with DMSO to the desired concentrations (0.1, 0.5, 1, 2.5, 5 and 10 micromol/L), and the diluted solution was added to each well. The individual wells were further cultured in 5% carbon dioxide at 37° C. for 72 hours. After completion of the culture, 10 μl MTS (3-(4,5-Dimethyl-2-thiazolyl)-5-(carboxymethoxyphenyl)-2-(4-sulfophenyl)-2H-tetrazolium, inner salt assay (CellTiter96® AQueous One Solution Cell Proliferation Assay, Promega) was added to each well, and culturing was performed in 5% carbon dioxide at 37° C. for 2 hours. Using a microplate spectrophotometer (Synergy 2 multi-mode microplate reader (BioTek)), the absorbance of each well was measured at 490 nm. The value for cells not incorporated with a test compound was designated as 100%. By comparing these values with the absorbance difference obtained at the well in which each test compound was added, the cell viability (% viability) after treatment with the test compound was calculated.

The subject of assay [2] is human myelomonocytic, biphenotypic leukemia MV4-11 cells. Nature of the assay: Growth inhibition test (MTS). In kind it is cell-based. The settings on record: MV-4-11, 72 hours, read-out: Cytotoxicity in MTS assay (ED50). The method, then: as §1, with “Ten” for “Two”, “myelomonocytic, biphenotypic leukemia MV4-11” for “prostate adenocarcinoma PC3”, “Corp.)” for “Corp.), and”, “Iscove's MDM” for “F12K (Ham's F12:RPMI 8226 1:1)”

A further assay addresses PIM2 (Homo sapiens, UniProt Q9P1W9). The assay is described as follows: Radiometric kinase assay (HotSpot). The settings on record: for Selectivity for Pim-2 over CK2α: ratio of IC50 values.
For assay [3], the system named is human acute promyelocytic leukemia HL-60 cells. The assay is described as follows: Growth inhibition test (MTS). In kind it is cell-based. As to conditions: 72 hours. How it is done:
as §1, with “Ten” for “Two”, “acute promyelocytic leukemia HL-60” for “prostate adenocarcinoma PC3”, “Corp.)” for “Corp.), and”, “RPMI” for “F12K (Ham's F12:RPMI”, “8226” for “8226 1:1)”

Assay [4] has as its system human chronic myelocytic leukemia K562 cells. The assay is described as follows: Growth inhibition test (MTS). In kind it is cell-based. As to conditions: 72 hours. The method, then: as §1, with “Ten” for “Two”, “chronic myelocytic leukemia K562” for “prostate adenocarcinoma PC3”, “Corp.)” for “Corp.), and”, “Iscove's MDM” for “F12K (Ham's F12:RPMI 8226 1:1)”
Assay [5] has as its system human colorectal adenocarcinoma SW480 cells. Nature of the assay: Growth inhibition test (MTS). The settings on record: 72 hours. In kind it is cell-based. How it is done:
as §1, with “colorectal” for “prostate”, “SW480” for “PC3”, “DMEM/Ham's F121:1” for “F12K (Ham's F12:RPMI 8226 1:1)”, “5%” for “10%”

The mark [6] stands for this setting: read-out: Inhibitory activity (IC50 in nM) in radiometric cell free assay, Pim-2, ATP 1 μM, peptide 5 μM.

Chain of PIM2 (Q9P1W9 whole entry): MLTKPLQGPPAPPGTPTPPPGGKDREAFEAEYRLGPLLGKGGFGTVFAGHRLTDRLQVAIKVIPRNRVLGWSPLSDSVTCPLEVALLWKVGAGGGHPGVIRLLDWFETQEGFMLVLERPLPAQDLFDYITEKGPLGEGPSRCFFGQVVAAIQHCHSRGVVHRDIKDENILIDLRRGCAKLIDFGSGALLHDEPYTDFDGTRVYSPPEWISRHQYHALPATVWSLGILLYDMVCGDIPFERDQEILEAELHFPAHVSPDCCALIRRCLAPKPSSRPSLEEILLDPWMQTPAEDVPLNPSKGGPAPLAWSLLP
Description for PIM2: Kinase assays were performed at Reaction Biology Corporation (www.reactionbiology.com, Malvern Pa.) using the “HotSpot” assay platform. This assay platform is based on a radiometric filtration binding assay and is considered as the “gold standard” to which non-radiometric methods are compared. In this assay format, the kinase reaction is performed in the presence of 32 P-γ-ATP or 33 P-γ-ATP, followed by binding of the final radioisotope labeled peptide product to filters after which unreacted phosphate is washed away and the levels of phosphorylated peptide are measured.

In the case of `Brc1c(Br)c(Br)c2[nH]c(NCCN3CCCCC3)nc2c1Br` [Compound 13, 4,5,6,7-tetrabromo-N-(2-(piperidin-1-yl)ethyl)-1H-benzo[d]imidazol-2-amine], the “Cytotoxicity in MTS assay (ED50)” value in assay [1] stood at 5.19 µM; in assay [3], 3.29 µM. Moreover, the IC50 stood at 3.16 µM in assay [2] (Homo sapiens, MV4-11) and 897 nM at PIM2. The “Selectivity for Pim-2 over CK2α” value on PIM2 was found to be 2.5.

Regarding `CN(C)c1nc2c(Br)c(Br)c(Br)c(Br)c2n1CC(=O)O` [Compound K66, reference compound], the “Cytotoxicity in MTS assay (ED50)” value in assay [1], in assay [4] and in assay [5] was greater than 10 µM each time. The figures for the IC50 (in assay [2]; on PIM2 (setting [6])) were greater than 10 µM and 954 nM, respectively. Besides, the “Selectivity for Pim-2 over CK2α” value at PIM2 amounted to 0.2.

As for `Brc1c(Br)c(Br)c2c(Br)n[nH]c2c1Br` [Compound K64, reference compound], the “Cytotoxicity in MTS assay (ED50)” value in assay [1] is greater than 10 µM; in assay [4], greater than 10 µM; in assay [5], 9.13 µM. Further, the IC50 in assay [2] was greater than 10 µM; on PIM2 (setting [6]) it was 871 nM. Further, the “Selectivity for Pim-2 over CK2α” value at PIM2 amounted to 0.7.

In the case of `Brc1c(Br)c(Br)c2[nH]c(NCCN3CCOCC3)nc2c1Br` [Compound 16, 4,5,6,7-tetrabromo-N-(2-morpholinoethyl)-1H-benzo[d]imidazol-2-amine], the “Cytotoxicity in MTS assay (ED50)” value in assay [1] and in assay [3] was greater than 10 µM in each case. Further, the IC50 in assay [2] (Homo sapiens, MV4-11) stood at 2.17 µM; against PIM2, 3010 nM. At PIM2, the “Selectivity for Pim-2 over CK2α” value was 2.3.

`Brc1c(Br)c(Br)c2[nH]cnc2c1Br` [TBI, reference compound]: the “Cytotoxicity in MTS assay (ED50)” value in assay [1] was greater than 10 µM; in assay [4], greater than 10 µM; in assay [5], 7.21 µM. In addition, the IC50 is greater than 10 µM in assay [2] and greater than 20000 nM on PIM2 (setting [6]).

Take `Brc1c(Br)c(Br)c2[nH]nnc2c1Br` [TBB, reference compound]: the “Cytotoxicity in MTS assay (ED50)” value in assay [1], in assay [4] and in assay [5] was greater than 10 µM throughout. For the same compound, the IC50 in assay [2] was greater than 10 µM; at PIM2 (setting [6]), greater than 20000 nM.

As to `CN(C)c1nc2c(Br)c(Br)c(Br)c(Br)c2[nH]1` [DMAT, reference compound], the “Cytotoxicity in MTS assay (ED50)” value in assay [1], in assay [4] and in assay [3] was greater than 10 µM throughout. The IC50 is 3.15 µM in assay [2] and 2460 nM at PIM2 (setting [6]).

As for `NCCCNc1nc2c(Br)c(Br)c(Br)c(Br)c2[nH]1` [Compound 11, N-(3-aminopropyl)-4,5,6,7-tetrabromo-1H-benzo[d]imidazol-2-amine], the “Cytotoxicity in MTS assay (ED50)” value in assay [1] was 7.32 µM; in assay [4], 7.48 µM; in assay [3] it was 6.12 µM; in assay [5], 3.46 µM. The IC50 in assay [2] (Homo sapiens, MV4-11) was found to be 1.78 µM; at PIM2, 98.2 nM. At PIM2, the “Selectivity for Pim-2 over CK2α” value stood at 10.3.

With `CN1CCN(c2nc3c(Br)c(Br)c(Br)c(Br)c3[nH]2)CC1` [Compound 21, 4,5,6,7-tetrabromo-2-(4-methylpiperazin-1-yl)-1H-benzo[d]imidazole], the “Cytotoxicity in MTS assay (ED50)” value in assay [1] and in assay [3] was greater than 10 µM each time. The IC50 in assay [2] (Homo sapiens, MV4-11) was determined as 3.78 µM; on PIM2 it was 1690 nM. Besides, at PIM2, the “Selectivity for Pim-2 over CK2α” value is recorded as 1.1.

Regarding `Brc1c(Br)c(Br)c2[nH]c(N3CCNCC3)nc2c1Br` [Compound 20, 4,5,6,7-tetrabromo-2-(piperazin-1-yl)-1H-benzo[d]imidazole], the “Cytotoxicity in MTS assay (ED50)” value worked out at 6.61 µM in assay [1], 7.25 µM in assay [4], 7.88 µM in assay [3] and 4.91 µM in assay [5]. The IC50 in assay [2] (Homo sapiens, MV4-11) amounted to 0.79 µM; against PIM2, 326 nM. Also, the “Selectivity for Pim-2 over CK2α” value at PIM2 amounted to 0.4.

Take `Brc1c(Br)c(Br)c2[nH]c(NCCN3CCCC3)nc2c1Br` [Compound 14, 4,5,6,7-tetrabromo-N-(2-(pyrrolidin-1-yl)ethyl)-1H-benzo[d]imidazol-2-amine]: the “Cytotoxicity in MTS assay (ED50)” value in assay [1] is 5.47 µM; in assay [3] it was 2.04 µM. Moreover, the IC50 was 1.29 µM in assay [2] (Homo sapiens, MV4-11) and 618 nM on PIM2. Also, the “Selectivity for Pim-2 over CK2α” value on PIM2 stood at 1.3.
